{"source": "patent US5294617A", "about": "“Angiotensin II receptor blocking 2,3,6 substituted quinazolinones” (American Cyanamid Company, priority 1993, dated 1994)", "system": "ANGIOTENSIN II (AII) VASOPRESSOR RESPONSE", "test": "AII Challenge: angiotensin II vasopressor response in conscious spontaneously hypertensive rats", "format": "in vivo, Conscious Male Okamoto-Aoki SHR (rat)", "conditions": "for % Inhibition / Average Change: SHR n=2; for Response After AII / Response Change: individual rat, SHR", "text": "By administering a compound of this invention to a rat, and then challenging with angiotensin II, a blockage of the vasopressor response is realized.\nConscious Male Okamoto-Aoki SHR, 16-20 weeks old, weighing approximately 330 g are purchased from Charles River Labs (Wilmington, Mass.). Conscious rats are restrained in a supine position with elastic tape. The area at the base of the tail is locally anesthetized by subcutaneous infiltration with 2% procaine. The ventral caudal artery and vein are isolated, and a cannula made of polyethylene (PE) 10-20 tubing (fused together by heat) is passed into the lower abdominal aorta and vena cava, respectively. The cannula is secured, heparinized (1,000 I.U./ml), sealed and the wound is closed. The animals are placed in plastic restraining cages in an upright position. The cannula is attached to a Statham P23Db pressure transducer, and pulsatile blood pressure is recorded to 10-15 minutes with a Gould Brush recorder. (Chan et al., (Drug Development Res., 18:75-94, 1989).\nAngiotensin II (human sequence, Sigma Chem. Co., St. Louis, Mo.) of 0.05 and 0.1 ug/kg i.v. is injected into all rats (predosing response). Then a test compound, vehicle or a known angiotensin II antagonist is administered i.v., i.p. or orally to each set of rats. The two doses of angiotensin II are given to each rat again at 30, 60, 90, 120, 180, 240 and 300 minutes post dosing the compound or vehicle. The vasopressor response of angiotensin II is measured for the increase in systolic blood pressure in mmHg. The percentage of antagonism or blockade of the vasopressor response of angiotensin II by a compound is calculated using the vasopressor response (increase in systolic blood pressure) of angiotensin II of each rat predosing the compound as 100%. A compound is considered active if at 30 mg/kg i.v. it antagonized at least 50% of the response.", "key": {"[1]": {"conditions": "2 mg/kg i.v., AII 0.05 mcg/kg IV, 30 min post dose"}, "[2]": {"conditions": "2 mg/kg i.v., AII 0.05 mcg/kg IV, 60 min post dose"}, "[3]": {"conditions": "2 mg/kg i.v., AII 0.05 mcg/kg IV, 90 min post dose"}, "[4]": {"conditions": "2 mg/kg i.v., AII 0.05 mcg/kg IV, 120 min post dose"}, "[5]": {"conditions": "2 mg/kg i.v., AII 0.05 mcg/kg IV, 180 min post dose"}, "[6]": {"conditions": "2 mg/kg i.v., AII 0.1 mcg/kg IV, 30 min post dose"}, "[7]": {"conditions": "2 mg/kg i.v., AII 0.1 mcg/kg IV, 60 min post dose"}, "[8]": {"conditions": "2 mg/kg i.v., AII 0.1 mcg/kg IV, 90 min post dose"}, "[9]": {"conditions": "2 mg/kg i.v., AII 0.1 mcg/kg IV, 120 min post dose"}, "[10]": {"conditions": "2 mg/kg i.v., AII 0.1 mcg/kg IV, 180 min post dose"}, "[11]": {"conditions": "10 mg/kg i.v., AII 0.05 mcg/kg IV, 30 min post dose"}, "[12]": {"conditions": "10 mg/kg i.v., AII 0.05 mcg/kg IV, 60 min post dose"}, "[13]": {"conditions": "10 mg/kg i.v., AII 0.05 mcg/kg IV, 90 min post dose"}, "[14]": {"conditions": "10 mg/kg i.v., AII 0.05 mcg/kg IV, 120 min post dose"}, "[15]": {"conditions": "10 mg/kg i.v., AII 0.05 mcg/kg IV, 180 min post dose"}, "[16]": {"conditions": "10 mg/kg i.v., AII 0.05 mcg/kg IV, 240 min post dose"}, "[17]": {"conditions": "10 mg/kg i.v., AII 0.05 mcg/kg IV, 300 min post dose"}, "[18]": {"conditions": "10 mg/kg i.v., AII 0.1 mcg/kg IV, 30 min post dose"}, "[19]": {"conditions": "10 mg/kg i.v., AII 0.1 mcg/kg IV, 60 min post dose"}, "[20]": {"conditions": "10 mg/kg i.v., AII 0.1 mcg/kg IV, 90 min post dose"}, "[21]": {"conditions": "10 mg/kg i.v., AII 0.1 mcg/kg IV, 120 min post dose"}, "[22]": {"conditions": "10 mg/kg i.v., AII 0.1 mcg/kg IV, 180 min post dose"}, "[23]": {"conditions": "10 mg/kg i.v., AII 0.1 mcg/kg IV, 240 min post dose"}, "[24]": {"conditions": "10 mg/kg i.v., AII 0.1 mcg/kg IV, 300 min post dose"}, "[25]": {"conditions": "2 mg/kg i.v., AII 0.05 mcg/kg IV, 30 min post dose, 2 mg/kg"}, "[26]": {"conditions": "2 mg/kg i.v., AII 0.05 mcg/kg IV, 60 min post dose, 2 mg/kg"}, "[27]": {"conditions": "2 mg/kg i.v., AII 0.05 mcg/kg IV, 90 min post dose, 2 mg/kg"}, "[28]": {"conditions": "2 mg/kg i.v., AII 0.05 mcg/kg IV, 180 min post dose, 2 mg/kg"}, "[29]": {"conditions": "2 mg/kg i.v., AII 0.1 mcg/kg IV, 30 min post dose, 2 mg/kg"}, "[30]": {"conditions": "2 mg/kg i.v., AII 0.1 mcg/kg IV, 60 min post dose, 2 mg/kg"}}, "note": "Where “and” joins values, the source holds several entries; their conditions need not be identical. Equal entries are not always repeated.", "data": [{"molecule": "CCCCc1nc2ccc([C@@H]3C[C@H](CO)ON3C)cc2c(=O)n1Cc1ccc(-c2ccccc2-c2nn[nH]n2)cc1", "note": "(relative stereo) [Example 15, CIS-2-butyl-6-5-(hydroxymethyl)-2-methyl-3-isoxazolidinyl]-3-[[2'-(1H-tetrazol-5[1,1'-biphenyl]-4-yl]methyl]-4(3H)-quinazolinone]", "values": [{"measurement": "% Inhibition", "setting": "[1]", "value": 43, "unit": "%"}, {"measurement": "Average Change", "setting": "[1]", "value": 26, "unit": "mmHg"}, {"measurement": "% Inhibition", "setting": "[2]", "value": 67, "unit": "%"}, {"measurement": "Average Change", "setting": "[2]", "value": 15, "unit": "mmHg"}, {"measurement": "% Inhibition", "setting": "[3]", "value": 67, "unit": "%"}, {"measurement": "Average Change", "setting": "[3]", "value": 15, "unit": "mmHg"}, {"measurement": "% Inhibition", "setting": "[4]", "value": 67, "unit": "%"}, {"measurement": "Average Change", "setting": "[4]", "value": 15, "unit": "mmHg"}, {"measurement": "% Inhibition", "setting": "[5]", "value": 43, "unit": "%"}, {"measurement": "Average Change", "setting": "[5]", "value": 26, "unit": "mmHg"}, {"measurement": "% Inhibition", "setting": "[6]", "value": 38, "unit": "%"}, {"measurement": "Average Change", "setting": "[6]", "value": 30, "unit": "mmHg"}, {"measurement": "% Inhibition", "setting": "[7]", "value": 45, "unit": "%"}, {"measurement": "Average Change", "setting": "[7]", "value": 26.5, "unit": "mmHg"}, {"measurement": "% Inhibition", "setting": "[8]", "value": 48, "unit": "%"}, {"measurement": "Average Change", "setting": "[8]", "value": 25, "unit": "mmHg"}, {"measurement": "% Inhibition", "setting": "[9]", "value": 62, "unit": "%"}, {"measurement": "Average Change", "setting": "[9]", "value": 18.5, "unit": "mmHg"}, {"measurement": "% Inhibition", "setting": "[10]", "value": 54, "unit": "%"}, {"measurement": "Average Change", "setting": "[10]", "value": 22.5, "unit": "mmHg"}, {"measurement": "% Inhibition", "setting": "[11]", "value": 78, "unit": "%"}, {"measurement": "Average Change", "setting": "[11]", "value": 10, "unit": "mmHg"}, {"measurement": "% Inhibition", "setting": "[12]", "value": 99, "unit": "%"}, {"measurement": "Average Change", "setting": "[12]", "value": 0.5, "unit": "mmHg"}, {"measurement": "% Inhibition", "setting": "[13]", "value": 89, "unit": "%"}, {"measurement": "Average Change", "setting": "[13]", "value": 5, "unit": "mmHg"}, {"measurement": "% Inhibition", "setting": "[14]", "value": 72, "unit": "%"}, {"measurement": "Average Change", "setting": "[14]", "value": 12.5, "unit": "mmHg"}, {"measurement": "% Inhibition", "setting": "[15]", "value": 56, "unit": "%"}, {"measurement": "Average Change", "setting": "[15]", "value": 20, "unit": "mmHg"}, {"measurement": "% Inhibition", "setting": "[16]", "value": 67, "unit": "%"}, {"measurement": "Average Change", "setting": "[16]", "value": 15, "unit": "mmHg"}, {"measurement": "% Inhibition", "setting": "[17]", "value": 70, "unit": "%"}, {"measurement": "Average Change", "setting": "[17]", "value": 13.5, "unit": "mmHg"}, {"measurement": "% Inhibition", "setting": "[18]", "value": 100, "unit": "%"}, {"measurement": "Average Change", "setting": "[18]", "value": 0, "unit": "mmHg"}, {"measurement": "% Inhibition", "setting": "[19]", "value": 80, "unit": "%"}, {"measurement": "Average Change", "setting": "[19]", "value": 9, "unit": "mmHg"}, {"measurement": "% Inhibition", "setting": "[20]", "value": 72, "unit": "%"}, {"measurement": "Average Change", "setting": "[20]", "value": 12.5, "unit": "mmHg"}, {"measurement": "% Inhibition", "setting": "[21]", "value": 72, "unit": "%"}, {"measurement": "Average Change", "setting": "[21]", "value": 12.5, "unit": "mmHg"}, {"measurement": "% Inhibition", "setting": "[22]", "value": 52, "unit": "%"}, {"measurement": "Average Change", "setting": "[22]", "value": 21.5, "unit": "mmHg"}, {"measurement": "% Inhibition", "setting": "[23]", "value": 52, "unit": "%"}, {"measurement": "Average Change", "setting": "[23]", "value": 21.5, "unit": "mmHg"}, {"measurement": "% Inhibition", "setting": "[24]", "value": 28, "unit": "%"}, {"measurement": "Average Change", "setting": "[24]", "value": "32,5 mmHg"}, {"measurement": "Response After AII", "setting": "[25]", "value": "237 mmHg and 255 mmHg"}, {"measurement": "Response Change", "setting": "[25]", "value": "22 mmHg and 30 mmHg"}, {"measurement": "Response After AII", "setting": "[2]", "value": 245, "unit": "mmHg"}, {"measurement": "Response After AII", "setting": "[26]", "value": 225, "unit": "mmHg"}, {"measurement": "Response Change", "setting": "[26]", "value": "25 mmHg and 5 mmHg"}, {"measurement": "Response After AII", "setting": "[27]", "value": "230 mmHg and 235 mmHg"}, {"measurement": "Response Change", "setting": "[27]", "value": "20 mmHg and 10 mmHg"}, {"measurement": "Response Change", "setting": "[4]", "value": 15, "unit": "mmHg"}, {"measurement": "Response After AII", "setting": "2 mg/kg i.v., AII 0.05 mcg/kg IV, 120 min post dose, 2 mg/kg", "value": "220 mmHg and 230 mmHg"}, {"measurement": "Response After AII", "setting": "[28]", "value": "220 mmHg and 250 mmHg"}, {"measurement": "Response Change", "setting": "[28]", "value": "17 mmHg and 35 mmHg"}, {"measurement": "Response After AII", "setting": "[29]", "value": "245 mmHg and 250 mmHg"}, {"measurement": "Response Change", "setting": "[29]", "value": "25 mmHg and 35 mmHg"}, {"measurement": "Response After AII", "setting": "[30]", "value": "255 mmHg and 235 mmHg"}, {"measurement": "Response Change", "setting": "[30]", "value": "35 mmHg and 18 mmHg"}]}]}
